Test results published in ChEMBL document CHEMBL3399941, “Discovery of heterocyclic sulfonamides as sphingosine 1-phosphate receptor 1 (S1P1) antagonists” (Bioorg Med Chem Lett, 2015).
pEC50: −log10 of the molar value. In brackets after ≈: the same amount, converted by molar mass.

Key:
[1] = target: Sphingosine 1-phosphate receptor 1 (Homo sapiens, UniProt P21453); test: Antagonist activity against S1P1R in human U2OS cells expressing beta-arrestin/green fluorescent protein assessed as effect on S1P-induced beta-arrestin GFP relocalization incubated for 30 mins by Hoechst 33342 staining based receptor translocation assay; assay type: cell-based
[2] = Solubility in pH 7.4 buffer; assay type: physicochemical
Liver microsome = test: (§1) Intrinsic clearance in human liver microsomes; assay type: ADME; settings: microsomes
[3] = Lipophilicity, log D of the compound; assay type: physicochemical; settings: octanol/water
[4] = Protein binding in human plasma assessed as unbound fraction; assay type: ADME, cell-free
[5] = Protein binding in rat plasma assessed as unbound fraction; assay type: ADME, cell-free
[6] = Intrinsic clearance in rat hepatocytes assessed per 10^6 cells; assay type: ADME, cell-based, Hepatocyte; settings: read-out: CLH
[7] = Apparent permeability from apical to basolateral side in human Caco2 cells; assay type: ADME, cell-based; settings: Caco-2
[8] = Apparent permeability from basolateral to apical side in human Caco2 cells; assay type: ADME, cell-based; settings: Caco-2
[9] = Volume of distribution at steady state in rat at 1 mg/kg, iv; assay type: ADME, organism-based; design: dose 1 mg/kg, route intravenous; settings: in vivo, read-out: Vdss
[10] = Half life in rat at 1 mg/kg, iv; assay type: ADME, organism-based; design: dose 1 mg/kg, route intravenous; settings: in vivo
Rattus norvegicus [11] = test: AUC in rat at 3 mg/kg, po; assay type: ADME, organism-based, Plasma; design: dose 3 mg/kg, route oral; settings: in vivo
[12] = Cmax in rat at 3 mg/kg, po; assay type: ADME, organism-based; design: dose 3 mg/kg, route oral; settings: in vivo
Rattus norvegicus [13] = test: Oral bioavailability in rat at 3 mg/kg; assay type: ADME, organism-based; settings: in vivo
[14] = as §1; assay type: ADME; settings: liver microsomes, read-out: CLH
[15] = Intrinsic clearance in human hepatocytes assessed per 10^6 cells; assay type: ADME, cell-based, Hepatocyte; settings: read-out: CLH

Chain of Sphingosine 1-phosphate receptor 1 (P21453 whole entry): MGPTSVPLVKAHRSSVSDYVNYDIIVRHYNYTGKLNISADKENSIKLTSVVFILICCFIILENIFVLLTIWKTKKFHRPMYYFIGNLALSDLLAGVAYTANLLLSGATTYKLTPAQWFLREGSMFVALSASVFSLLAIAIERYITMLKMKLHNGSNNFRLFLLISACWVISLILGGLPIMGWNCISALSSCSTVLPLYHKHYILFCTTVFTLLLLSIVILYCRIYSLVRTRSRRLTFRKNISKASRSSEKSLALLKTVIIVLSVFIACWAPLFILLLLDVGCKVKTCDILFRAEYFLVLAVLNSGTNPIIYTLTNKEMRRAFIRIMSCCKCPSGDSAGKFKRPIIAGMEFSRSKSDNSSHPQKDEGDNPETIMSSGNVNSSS

SMILES | pEC50 [1] | also measured
CCc1nnc([C@@H](C)NS(=O)(=O)c2ccc(Cl)cc2)n1CC | 6.60 | solubility [2]: > 600 µM; microsomal CLint (Liver microsome): 5.5 µL/min/mg; logD [3]: 1.4; fraction unbound [4]: 0.34; fraction unbound [5]: 0.5; hepatocyte CLint [6]: 10.2 µL/min/1e6 cells; Papp A→B [7]: 11.1 ×10⁻⁶ cm/s; Papp B→A [8]: 22.5 ×10⁻⁶ cm/s; Vd [9]: 0.7 L/kg; half-life [10]: 1.4 h; AUC (Rattus norvegicus [11]): 2.7 µM·h; Cmax [12]: 1600 nM; F (Rattus norvegicus [13]): 11%
CCc1nnc([C@H](C)NS(=O)(=O)c2ccc(Cl)cc2)n1CC | < 4.48 | –
CCn1c(C)nnc1C(Cc1ccc(F)cc1)NS(=O)(=O)c1ccc(Cl)cc1 (racemic) | 6.31 | –
C=CCC(NS(=O)(=O)c1ccc(Cl)cc1)c1nnc(C)n1CC (racemic) | 5.65 | –
CCCC(NS(=O)(=O)c1ccc(Cl)cc1)c1nnc(C)n1CC (racemic) | 5.21 | –
CCn1c(C)nnc1C(CC1CC1)NS(=O)(=O)c1ccc(Cl)cc1 (racemic) | 5.11 | –
CCn1c(C)nnc1C(C)NS(=O)(=O)c1ccc(Cl)cc1 (racemic) | 6.17 | solubility [2]: 380 µM (≈ 125 µg/mL); microsomal CLint [14]: < 5 µL/min/mg; hepatocyte CLint [15]: < 2 µL/min/1e6 cells
CCc1onc(C(C)NS(=O)(=O)c2ccc(Cl)cc2)c1CC (racemic) | 5.52 | microsomal CLint [14]: > 100 µL/min/mg
CCc1snc(C(C)NS(=O)(=O)c2ccc(Cl)cc2)c1CC (racemic) | 6.14 | microsomal CLint [14]: > 100 µL/min/mg
CCc1[nH]nc(C(C)NS(=O)(=O)c2ccc(Cl)cc2)c1CC (racemic) | 6.51 | microsomal CLint [14]: > 100 µL/min/mg
CCc1nnc(C(C)NS(=O)(=O)c2ccc(Cl)cc2)n1CC (racemic) | 6.39 | –

Continued, in another order:

pEC50 [1] | SMILES | also measured
5.99 | C=CCSc1nnc(C(Cc2ccccc2)NS(=O)(=O)c2ccc(Cl)cc2)n1C (racemic) | –
4.66 | Cn1cnnc1C(Cc1ccccc1)NS(=O)(=O)c1ccc(Cl)cc1 (racemic) | –
5.74 | Cc1nnc(C(Cc2ccccc2)NS(=O)(=O)c2ccc(Cl)cc2)n1C (racemic) | –
6.47 | CCc1nnc(C(Cc2ccccc2)NS(=O)(=O)c2ccc(Cl)cc2)n1C (racemic) | –
5.49 | CCCCc1nnc(C(Cc2ccccc2)NS(=O)(=O)c2ccc(Cl)cc2)n1C (racemic) | –
5.50 | Cn1c(C(Cc2ccccc2)NS(=O)(=O)c2ccc(Cl)cc2)nnc1C(F)(F)F (racemic) | –
6.34 | CCn1c(C)nnc1C(Cc1ccccc1)NS(=O)(=O)c1ccc(Cl)cc1 (racemic) | –
5.57 | CCCn1c(C)nnc1C(Cc1ccccc1)NS(=O)(=O)c1ccc(Cl)cc1 (racemic) | –
5.20 | Cc1nnc(C(Cc2ccccc2)NS(=O)(=O)c2ccc(Cl)cc2)n1C(C)C (racemic) | –
< 4.00 | Cc1nnc(C(Cc2ccccc2)NS(=O)(=O)c2ccc(Cl)cc2)n1Cc1ccccc1 (racemic) | –
6.66 | CCc1nnc(C(Cc2ccccc2)NS(=O)(=O)c2ccc(Cl)cc2)n1CC (racemic) | –
5.63 | CCn1c(C)nnc1C(Cc1cccnc1)NS(=O)(=O)c1ccc(Cl)cc1 (racemic) | –
4.82 | CCc1nnc(C(Cc2ccccc2)NS(=O)(=O)c2ccc(Cl)cc2)o1 (racemic) | microsomal CLint [14]: > 100 µL/min/mg
< 4.00 | Cc1ncc(C(Cc2ccccc2)NS(=O)(=O)c2ccc(Cl)cc2)n1C (racemic) | microsomal CLint [14]: > 100 µL/min/mg
5.79 | Cc1cnc(C(Cc2ccccc2)NS(=O)(=O)c2ccc(Cl)cc2)n1C (racemic) | microsomal CLint [14]: > 100 µL/min/mg
